Experimental data reported in US9095561B2, “Methods for affecting homology-directed DNA double stranded break repair” (University of South Carolina, priority 2010, dated 2015).
Where a SMILES comes first, the peptide text is derived from it. The star is where a group is joined. Cbz = O=C(OCc1ccccc1)*

Tests used:
HA-RAD51D = HA-RAD51D protein levels after CHX with or without proteasome inhibitor MG132; type: cell-based, mouse; set-up: HA-RAD51D protein levels elevated: dose or concentration left out as unconfirmed
Procedure: FIG. 18 illustrates analysis of MEFs that were treated with CHX ([…]) or CHX in combination with MG132 ([…]). Cell lysates were prepared at the 4 hour time point, and HA-RAD51D band intensity was calculated as described herein.
To determine whether decreased HA-RAD51D half-life can be attributed to proteasome degradation, HA-RAD51D protein levels were assessed following treatment with the proteasome inhibitor MG132. As anticipated, HA-RAD51D protein levels were elevated up to 42% in MG132 treated samples (FIG. 18, lanes 1-4) indicating RAD51D protein levels are in part regulated by the proteasome.

RAD51 foci = RAD51 foci formation by immunofluorescence in MEFs; type: cell-based, mouse; settings: MMC 200 ng/mL, 16 h exposure, RNF138 proficient MEFs; untreated control approximately 21 percent; p<0.01
Procedure: The presence of RAD51 foci was examined in MEFs subjected to either 200 ng/mL Mitomycin C (MMC) treatment or with no treatment. In addition, both deficient RNF138 cells and proficient RNF138 cells were examined.
For analysis of RAD51 foci formation, 10,000 cells were seeded onto glass coverslips for transfection with Rnf138 siRNA. Twenty-four hr following siRNA transfection, cells were challenged with MMC (200 ng/mL) for 16 hr. Immunofluoresence detection of RAD51 foci was carried out as is generally known I the art (see, e.g., Smiraldo et al., 2005). Cells containing five or more distinct foci were scored positive. For each condition, a minimum of 250 cells from at least three independent experiments was analyzed (n≧750).
The presence of RAD51 foci monitored by immunofluorescence is illustrated in FIGS. 12A-D. RAD51 foci indicates DNA damaged sites undergoing HR repair. MMC treatment (200 ng/mL) increased the percentage of cells containing 5 or more distinct RAD51 foci from approximately 21 percent for untreated control cells (FIG. 12B) to 51 percent (FIG. 12D) following a 16 h exposure (p<0.01). […] In addition, RAD51 foci formation was less in untreated RNF138 deficient (FIG. 12A) versus RNF138 proficient (FIG. 12B) MEFs. Although, a notable increase in RAD51 foci is still detected upon MMC treatment (FIG. 13).

Row | Compound | HA-RAD51D protein stability following knockdown of RNF138 expression (HA-RAD51D; CHX plus MG132, 4 hour time point, RNF138 knockdown MEFs) | HA-RAD51D protein levels elevated (HA-RAD51D; CHX, 4 hour time point, MEFs) | percentage of cells containing 5 or more distinct RAD51 foci (RAD51 foci)
1 | CC(C)C[C@@H](C=O)NC(=O)[C@H](CC(C)C)NC(=O)[C@H](CC(C)C)NC(=O)OCc1ccccc1 [MG132] (Cbz-Leu-Leu-Leu-aldehyde) | failed to increase | up to 42% | –
2 | CO[C@@]12[C@H](COC(N)=O)C3=C(C(=O)C(C)=C(N)C3=O)N1C[C@@H]1N[C@@H]12 [MMC, Mitomycin C] | – | – | 51%
